Measurements published in patent publication US20110039816A1, “THERAPEUTIC SUBSTANCE, PHARMACEUTICAL COMPOSITION, HELICOBACTER PYLORI GROWTH INHIBITOR AND METHOD FOR CONDUCTING ANTI-HELICOBACTER THERAPY” (priority 2007, published 2011).
Entries after “also recorded” stand apart in the source; their conditions may differ.

Test system: H. pylori
Test: Effect of comparator drugs and CGNC on the growth of H. pylori patient strains
Type: cell-based, Helicobacter pylori
Design: key to Effect on the growth of H. pylori: (+) - inhibition of growth; (−) - no inhibition of growth
Details: for Effect on growth of H. pylori: strains 782, 785, 786, 787
Procedure: The effect of the following doses of CGNC was examined: 50, 100, and 300 mg/ml. Bacteriological methods were used to conduct the study. Three doses of CGNC (50, 100 and 300 mg/ml) were used for analysis of the CGNC effect on the growth of H. pylori. Serial dilutions, of dense nutrient media containing an increasing concentration of the test substance were set up. Isolates of H. pylori inoculated on standard for this type of bacteria mediums (without CGNC) were used to control the microbial growth. The effect of the test substance was compared with the effect of the placebo (sterile saline solution—0.15 M NaCl, pH 7.0-7.2). In a comparative experiment, the effect of the antimicrobials, amoxicillin (20 μg/ml) and metronidazole (80 μg/ml), were evaluated.
Metronidazole and amoxicillin, the most common used therapeutical substances in combined anti-helicobacter therapy, were chosen as comparator-drugs. H. pylori isolated from patients (No. 782, 785, 786, 787), were used to compare the effect of CGNC (300 mg/ml), amoxicillin (20 μg/ml) and metronidazole (80 μg/ml) (Table 3). These strains were isolated from patients with chronic gastroduodenitis, gastritis associated with gastric stump, duodenal ulcer and reflux esophagitis.

Compound: Cc1ncc([N+](=O)[O-])n1CCO [Metronidazole]
- Effect on growth of H. pylori (metronidazole 80 μg/ml): did not have an inhibiting effect; also recorded: did not inhibit the growth
- Effect on the growth of H. pylori (strain 782 (CGD), Metronidazole 80 μg/ml): −
- Effect on the growth of H. pylori (strain 785 (gastritis associated with gastric stump), Metronidazole 80 μg/ml): −
- Effect on the growth of H. pylori (strain 786 (DU, reflux esophagitis), Metronidazole 80 μg/ml): −
- Effect on the growth of H. pylori (strain 787 (CGD), Metronidazole 80 μg/ml): −

Compound: CC1(C)S[C@@H]2[C@H](NC(=O)[C@H](N)c3ccc(O)cc3)C(=O)N2[C@H]1C(=O)O [Amoxicillin]
- Effect on growth of H. pylori (amoxicillin 20 μg/ml): inhibited the growth; also recorded: inhibition of growth occurred
- Effect on the growth of H. pylori (strain 782 (CGD), Amoxicillin 20 μg/ml): +
- Effect on the growth of H. pylori (strain 785 (gastritis associated with gastric stump), Amoxicillin 20 μg/ml): +
- Effect on the growth of H. pylori (strain 786 (DU, reflux esophagitis), Amoxicillin 20 μg/ml): +
- Effect on the growth of H. pylori (strain 787 (CGD), Amoxicillin 20 μg/ml): +
